Source: ChEMBL document CHEMBL1201862, “PubChem BioAssay data set” (2004)
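1) Cells in 96-well plates. 2) Compound, 48 h, 5 concentrations. 3) Linear interpolation between surrounding doses. 4) Unreached endpoint = highest concentration. The concentration for 50% growth inhibition is given as GI50.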 The source made the active and inactive calls. Cut-off read from the data, not from the text of the source: active = GI50 up to about 1.1 µM and inactive = higher.

Legend:
Test in all cases: NCI tumour cell line growth inhibition, 48 h
BT-549 = system: BT-549
MDA-N = system: MDA-N
SNB-19 = system: SNB-19
TK-10 = system: TK-10
NCI-H460 = system: NCI-H460
HCT-15 = system: HCT-15
CAKI-1 = system: CAKI-1
NCI-H23 = system: NCI-H23
SK-MEL-2 = system: SK-MEL-2
HL-60 = system: HL-60
MDA-MB-435 = system: MDA-MB-435
SW-620 = system: SW-620
A498 = system: A498
SN12C = system: SN12C
RXF 393 = system: RXF 393
NCI-H522 = system: NCI-H522
OVCAR-5 = system: OVCAR-5
CCRF-CEM = system: CCRF-CEM
NCI-H226 = system: NCI-H226
SF-539 = system: SF-539

Measured: GI50

O=C1C(=C(I)I)c2ccccc2-c2ccccc21
active: HL-60 0.998 µM | NCI-H522 1.04 µM | CCRF-CEM 0.386 µM
inactive: BT-549 6.12 µM | MDA-N 2 µM | SNB-19 14.4 µM | TK-10 1.88 µM | NCI-H460 14.6 µM | CAKI-1 2.82 µM | NCI-H23 5.07 µM | SK-MEL-2 6.31 µM | MDA-MB-435 2.24 µM | SW-620 1.63 µM | A498 16.6 µM | SN12C 2.05 µM | RXF 393 1.68 µM | OVCAR-5 5.47 µM | NCI-H226 19.7 µM | SF-539 1.34 µM
2.47 µM: HCT-15

Nc1cc(N)cc(Cc2ccccc2)c1
inactive: BT-549 > 100 µM | MDA-N > 100 µM | SNB-19 > 100 µM | TK-10 > 100 µM | NCI-H460 > 100 µM | CAKI-1 > 100 µM | NCI-H23 > 100 µM | SK-MEL-2 > 100 µM | HL-60 > 100 µM | MDA-MB-435 > 100 µM | SW-620 > 100 µM | A498 > 100 µM | SN12C > 100 µM | RXF 393 > 100 µM | NCI-H522 > 100 µM | OVCAR-5 > 100 µM | CCRF-CEM > 100 µM | NCI-H226 > 100 µM | SF-539 > 100 µM
> 100 µM: HCT-15

CC(=O)OC(CC(C)C)P1(=O)N(CC(C)(C)C)[C@@H]2CCCC[C@H]2N1CC(C)(C)C (stereo not given in full)
inactive: BT-549 15.5 µM | MDA-N 8.26 µM | SNB-19 9.29 µM | TK-10 11.7 µM | NCI-H460 8.57 µM | CAKI-1 12.7 µM | NCI-H23 10.2 µM | SK-MEL-2 7.6 µM | HL-60 5.71 µM | MDA-MB-435 12.3 µM | SW-620 11.3 µM | A498 7.06 µM | SN12C 10.7 µM | RXF 393 6.38 µM | NCI-H522 6.4 µM | OVCAR-5 10.2 µM | CCRF-CEM 13.2 µM | NCI-H226 10.4 µM | SF-539 10.5 µM
9.82 µM: HCT-15

CC(=O)Nc1ncc2c(n1)-c1ccccc1OC2c1ccccc1 (stereo not given)
> 100 µM: HCT-15
inactive: BT-549 27.7 µM | MDA-N > 100 µM | SNB-19 20.8 µM | TK-10 28.7 µM | NCI-H460 > 100 µM | CAKI-1 26.1 µM | NCI-H23 26.1 µM | SK-MEL-2 71.8 µM | HL-60 > 100 µM | MDA-MB-435 > 100 µM | SW-620 > 100 µM | A498 20.7 µM | SN12C 87.9 µM | RXF 393 17.1 µM | NCI-H522 37.7 µM | OVCAR-5 > 100 µM | CCRF-CEM > 100 µM | NCI-H226 20.5 µM | SF-539 13.2 µM
